{
  "source": "paper PMC9137726",
  "about": "“Thioredoxin Reductase-Type Ferredoxin: NADP^+ Oxidoreductase of Rhodopseudomonas palustris: Potentiometric Characteristics and Reactions with Nonphysiological Oxidants” (Antioxidants, 2022)",
  "target": "T1, RpFNR (R. palustris TrxR-type FNR) (Rhodopseudomonas palustris, UniProt Q6N2U4)",
  "T1 construct": "gene RPA3954; domains span residues 2-344",
  "T1 sequence (Q6N2U4 whole entry, the tested form may be a part)": "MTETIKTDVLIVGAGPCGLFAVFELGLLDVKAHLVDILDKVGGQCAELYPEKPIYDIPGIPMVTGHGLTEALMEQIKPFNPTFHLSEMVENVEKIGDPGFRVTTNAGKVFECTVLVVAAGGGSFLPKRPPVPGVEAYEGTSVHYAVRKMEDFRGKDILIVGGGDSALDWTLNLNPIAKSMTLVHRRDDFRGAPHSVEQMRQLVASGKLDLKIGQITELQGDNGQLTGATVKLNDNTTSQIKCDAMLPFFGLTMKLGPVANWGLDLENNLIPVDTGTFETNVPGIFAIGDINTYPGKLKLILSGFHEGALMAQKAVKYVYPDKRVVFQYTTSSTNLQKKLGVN",
  "assay": "steady-state spectrophotometric NADPH:juglone reductase inhibition",
  "type": "biochemical",
  "conditions": "read-out: Kis",
  "data": [
    {"smiles": "NC(=O)c1ccc[n+]([C@@H]2O[C@H](COP(=O)(O)OP(=O)(O)OC[C@H]3O[C@@H](n4cnc5c(N)ncnc54)[C@H](OP(=O)(O)O)[C@@H]3O)[C@@H](O)[C@H]2O)c1", "note": "[NADP^+]", "values": [
      {"measurement": "Ki", "value": "150 ± 10", "unit": "µM"}
    ]}
  ]
}
